Tests used:
[1] = Toxicity in ip dosed mouse allografted with mouse L1210 cells administered qd from day 1 to 5 of challenge; type: organism-based; conditions: in vivo
[2] = Ionization constant, pKa of the compound in 20% DMF-buffer mixture by UV spectrophotometry; type: physicochemical
[3] = Lipophilic-hydrophilic balance, Rm of the compound by reversed-phase partition chromatography; type: physicochemical
L1210 [4] = assay: Antitumor activity against mouse L1210 cells allografted in ip dosed mouse assessed as dose required for maximum increase in life span administered qd from day 1 to 5 of challenge; type: functional
L1210 [5] = assay: Antitumor activity against mouse L1210 cells allografted in ip dosed mouse assessed as increase in life span at optimal dose administered qd from day 1 to 5 of challenge relative to control; type: functional
[6] = Ionization constant, pKa of the compound at pH 7.4; type: physicochemical

**Q.** With `CS(=O)(=O)Nc1ccc(Nc2c3ccccc3nc3c([N+](=O)[O-])cccc23)cc1` as the compound, how does the MTD [1] read?
**A.** Its MTD is greater than 500 mg/kg.

**Q.** And the pKa [2]?
**A.** Its pKa is 4.88.

**Q.** What about the Rm [3] of the same compound?
**A.** The Rm was -0.17.

**Q.** For `CS(=O)(=O)Nc1ccc(Nc2c3ccccc3nc3ncccc23)cc1`, which MTD [1] is on record?
**A.** Its MTD is greater than 500 mg/kg.

**Q.** What about the pKa [2] of the same compound?
**A.** Its pKa is 5.93.

**Q.** And the Rm [3]?
**A.** Its Rm is -0.27.

**Q.** Which MTD [1] does the source give for `CS(=O)(=O)Nc1ccc(Nc2c3ccccc3nc3cccnc23)cc1` here?
**A.** The MTD was greater than 500 mg/kg.

**Q.** What about the pKa [2] of the same compound?
**A.** The pKa was 6.9.

**Q.** And the Rm [3]?
**A.** The Rm was -0.56.

**Q.** With `CS(=O)(=O)Nc1ccc(Nc2c3ccccc3nc3cccc([N+](=O)[O-])c23)cc1` as the compound, how does the MTD [1] read?
**A.** The MTD was 75 mg/kg.

**Q.** And the pKa [2]?
**A.** The pKa was 4.79.

**Q.** What about the Rm [3] of the same compound?
**A.** The Rm was -0.09.

**Q.** Which Activity (L1210 [4]) does the source give for `COc1cc(Nc2c3ccccc3nc3c([N+](=O)[O-])cccc23)ccc1NS(C)(=O)=O` here?
**A.** The Activity was 75 mg/kg.

**Q.** What about the “Increase in life span” value (L1210 [5]) of the same compound?
**A.** Its value is 38%.

**Q.** What about the pKa [2] of the same compound?
**A.** Its pKa is 5.05.

**Q.** What about the Rm [3] of the same compound?
**A.** Its Rm is 0.09.

**Q.** Which Activity (L1210 [4]) does the source give for `CS(=O)(=O)Nc1ccc(Nc2c3ccccc3nc3cc([N+](=O)[O-])ccc23)cc1` here?
**A.** The Activity was 25 mg/kg.

**Q.** What about the “Increase in life span” value (L1210 [5]) of the same compound?
**A.** Its value is 123%.

**Q.** And the pKa [2]?
**A.** The pKa was 5.52.

**Q.** What about the Rm [3] of the same compound?
**A.** The Rm was -0.17.

**Q.** With `CS(=O)(=O)Nc1ccc(Nc2c3ccccc3nc3ccncc23)cc1` as the compound, how does the MTD [1] read?
**A.** Its MTD is greater than 500 mg/kg.

**Q.** And the pKa [2]?
**A.** The pKa was 5.73.

**Q.** What about the Rm [3] of the same compound?
**A.** Its Rm is -0.39.

**Q.** Which pKa [6] does the source give for `CS(=O)(=O)Nc1ccc(Nc2c3ccc([N+](=O)[O-])cc3nc3cc([N+](=O)[O-])ccc23)cc1` here?
**A.** Its pKa is 3.68.

**Q.** What does the source list for `COc1cc(Nc2c3ccccc3nc3cccnc23)ccc1NS(C)(=O)=O`?
**A.** MTD [1]: 220 mg/kg; pKa [2]: 7.19; Rm [3]: -0.39

**Q.** Which MTD [1] does the source give for `COc1cc(Nc2c3ccccc3nc3ccncc23)ccc1NS(C)(=O)=O` here?
**A.** The MTD was 500 mg/kg.

**Q.** And the pKa [2]?
**A.** Its pKa is 5.84.

**Q.** What about the Rm [3] of the same compound?
**A.** The Rm was -0.25.

**Q.** What does the source list for `COc1cc(Nc2c3ccccc3nc3cnccc23)ccc1NS(C)(=O)=O`?
**A.** Activity (L1210 [4]): 90 mg/kg; Increase in life span (L1210 [5]): 88%; pKa [2]: 5.53; Rm [3]: -0.13

**Q.** For `COc1cc(Nc2c3ccccc3nc3ncccc23)ccc1NS(C)(=O)=O`, which Activity (L1210 [4]) is on record?
**A.** The Activity was 62 mg/kg.

**Q.** What about the “Increase in life span” value (L1210 [5]) of the same compound?
**A.** The value was 89%.

**Q.** What about the pKa [2] of the same compound?
**A.** The pKa was 6.09.

**Q.** And the Rm [3]?
**A.** Its Rm is -0.07.

**Q.** Which Activity (L1210 [4]) does the source give for `COc1cc(Nc2c3ccccc3nc3cccc([N+](=O)[O-])c23)ccc1NS(C)(=O)=O` here?
**A.** Its Activity is 180 mg/kg.

**Q.** What about the “Increase in life span” value (L1210 [5]) of the same compound?
**A.** Its value is 44%.

**Q.** And the pKa [2]?
**A.** The pKa was 4.98.

**Q.** What about the Rm [3] of the same compound?
**A.** Its Rm is -0.01.

**Q.** For `COc1cc(Nc2c3ccccc3nc3ccc([N+](=O)[O-])cc23)ccc1NS(C)(=O)=O`, which MTD [1] is on record?
**A.** Its MTD is greater than 500 mg/kg.

**Q.** What about the pKa [2] of the same compound?
**A.** Its pKa is 5.63.

**Q.** What about the Rm [3] of the same compound?
**A.** Its Rm is -0.06.

**Q.** Which results are given for `COc1cc(Nc2c3ccccc3nc3cc([N+](=O)[O-])ccc23)ccc1NS(C)(=O)=O`?
**A.** Activity (L1210 [4]): 4.5 mg/kg; Increase in life span (L1210 [5]): 84%; pKa [2]: 5.72; Rm [3]: 0.11

**Q.** With `CS(=O)(=O)Nc1ccc(Nc2c3ccccc3nc3ccc(N)cc23)cc1` as the compound, how does the Activity (L1210 [4]) read?
**A.** The Activity was 25 mg/kg.

**Q.** What about the “Increase in life span” value (L1210 [5]) of the same compound?
**A.** Its value is 78%.

**Q.** And the pKa [2]?
**A.** The pKa was 7.15.

**Q.** What about the Rm [3] of the same compound?
**A.** Its Rm is -0.31.

**Q.** With `CS(=O)(=O)Nc1ccc(Nc2c3ccccc3nc3ccc([N+](=O)[O-])cc23)cc1` as the compound, how does the Activity (L1210 [4]) read?
**A.** The Activity was 250 mg/kg.

**Q.** What about the “Increase in life span” value (L1210 [5]) of the same compound?
**A.** Its value is 27%.

**Q.** And the pKa [2]?
**A.** Its pKa is 5.42.

**Q.** What about the Rm [3] of the same compound?
**A.** Its Rm is -0.21.

**Q.** For `CS(=O)(=O)Nc1ccc(Nc2c3ccccc3nc3cnccc23)cc1`, which MTD [1] is on record?
**A.** Its MTD is greater than 500 mg/kg.

**Q.** What about the pKa [2] of the same compound?
**A.** Its pKa is 5.32.

**Q.** What about the Rm [3] of the same compound?
**A.** The Rm was -0.33.

**Q.** Which Activity (L1210 [4]) does the source give for `CS(=O)(=O)Nc1ccc(Nc2c3ccccc3nc3cc(N)ccc23)cc1` here?
**A.** Its Activity is 2.5 mg/kg.

**Q.** And the “Increase in life span” value (L1210 [5])?
**A.** Its value is 81%.

**Q.** And the pKa [2]?
**A.** The pKa was 9.8.

**Q.** What about the Rm [3] of the same compound?
**A.** Its Rm is -0.17.

**Q.** What does the source list for `CS(=O)(=O)Nc1ccc(Nc2c3ccccc3nc3ccccc23)cc1`?
**A.** Activity (L1210 [4]): 45 mg/kg; Increase in life span (L1210 [5]): 107%; Rm [3]: 0
